Source: patent US6114310A, “Efflux pump inhibitors” (priority 1998, dated 2000)

Test system: Pseudomonas aeruginosa PAM1001
Assay: microbe, parasite or virus in culture
Type: cell-based
In short: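 Checkerboard broth microdilution (NCCLS) with the efflux pump inhibitor and levofloxacin, each diluted along one axis of the plate, in Mueller Hinton Broth. Inoculum 5×10^5 CFU/ml from early-log culture; incubation 20 h at 35° C. Growth read at 650 nm and visually.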

[1] = Table 1, EPI Conc. μg/ml (number not given; column between 10 and 40 μg/ml)
[2] = Table 2, EPI Conc. μg/ml (number not given; column between 10 and 40 μg/ml)
[3] = Table 3, EPI Conc. μg/ml (number not given; column between 10 and 40 μg/ml)
[4] = Table 4, EPI Conc. μg/ml (number not given; column between 10 and 40 μg/ml)

Substance | Levofloxacin MIC Against P. aeruginosa PAM1001 in Presence of Efflux Pump Inhibitor (EPI), Minimum Inhibitory Concentration (Table 1, EPI Conc. 0 μg/ml) | Levofloxacin MIC Against P. aeruginosa PAM1001 in Presence of Efflux Pump Inhibitor (EPI), Minimum Inhibitory Concentration (Table 1, EPI Conc. 0.625 μg/ml) | Levofloxacin MIC Against P. aeruginosa PAM1001 in Presence of Efflux Pump Inhibitor (EPI), Minimum Inhibitory Concentration (Table 1, EPI Conc. 5 μg/ml) | Levofloxacin MIC Against P. aeruginosa PAM1001 in Presence of Efflux Pump Inhibitor (EPI), Minimum Inhibitory Concentration (Table 1, EPI Conc. 10 μg/ml) | Levofloxacin MIC Against P. aeruginosa PAM1001 in Presence of Efflux Pump Inhibitor (EPI), Minimum Inhibitory Concentration (Table 1, EPI Conc. 40 μg/ml) | Levofloxacin MIC Against P. aeruginosa PAM1001 in Presence of Efflux Pump Inhibitor (EPI), Minimum Inhibitory Concentration (Table 1, EPI Conc. […]) | Levofloxacin MIC Against P. aeruginosa PAM1001 in Presence of Efflux Pump Inhibitor (EPI), Minimum Inhibitory Concentration [1] | Levofloxacin MIC Against P. aeruginosa PAM1001 in Presence of Efflux Pump Inhibitor (EPI), Minimum Inhibitory Concentration (Table 2, EPI Conc. 0 μg/ml) | Levofloxacin MIC Against P. aeruginosa PAM1001 in Presence of Efflux Pump Inhibitor (EPI), Minimum Inhibitory Concentration (Table 2, EPI Conc. 0.625 μg/ml) | Levofloxacin MIC Against P. aeruginosa PAM1001 in Presence of Efflux Pump Inhibitor (EPI), Minimum Inhibitory Concentration (Table 2, EPI Conc. 5 μg/ml) | Levofloxacin MIC Against P. aeruginosa PAM1001 in Presence of Efflux Pump Inhibitor (EPI), Minimum Inhibitory Concentration (Table 2, EPI Conc. 10 μg/ml) | Levofloxacin MIC Against P. aeruginosa PAM1001 in Presence of Efflux Pump Inhibitor (EPI), Minimum Inhibitory Concentration (Table 2, EPI Conc. 40 μg/ml) | Levofloxacin MIC Against P. aeruginosa PAM1001 in Presence of Efflux Pump Inhibitor (EPI), Minimum Inhibitory Concentration [2] | Levofloxacin MIC Against P. aeruginosa PAM1001 in Presence of Efflux Pump Inhibitor (EPI), Minimum Inhibitory Concentration (Table 3, EPI Conc. 0 μg/ml) | Levofloxacin MIC Against P. aeruginosa PAM1001 in Presence of Efflux Pump Inhibitor (EPI), Minimum Inhibitory Concentration (Table 3, EPI Conc. 0.625 μg/ml) | Levofloxacin MIC Against P. aeruginosa PAM1001 in Presence of Efflux Pump Inhibitor (EPI), Minimum Inhibitory Concentration (Table 3, EPI Conc. 5 μg/ml) | Levofloxacin MIC Against P. aeruginosa PAM1001 in Presence of Efflux Pump Inhibitor (EPI), Minimum Inhibitory Concentration (Table 3, EPI Conc. 10 μg/ml) | Levofloxacin MIC Against P. aeruginosa PAM1001 in Presence of Efflux Pump Inhibitor (EPI), Minimum Inhibitory Concentration (Table 3, EPI Conc. 40 μg/ml) | Levofloxacin MIC Against P. aeruginosa PAM1001 in Presence of Efflux Pump Inhibitor (EPI), Minimum Inhibitory Concentration [3] | Levofloxacin MIC Against P. aeruginosa PAM1001 in Presence of Efflux Pump Inhibitor (EPI), Minimum Inhibitory Concentration (Table 4, EPI Conc. 0 μg/ml) | other results
D-Ornithyl-β-(N-phenylpropyl)alanine 2-naphthylamide [Compound 20 (Table 3)] | 4 µg/mL | 4 µg/mL | 4 µg/mL | 2 µg/mL | 0.25 µg/mL | 4 µg/mL | 1 µg/mL | 4 µg/mL | 4 µg/mL | 2 µg/mL | 1 µg/mL | 0.03 µg/mL | 0.50 µg/mL | 4 µg/mL | 4 µg/mL | 2 µg/mL | 0.50 µg/mL | 0.015 µg/mL | 0.03 µg/mL | 4 µg/mL | Levofloxacin MIC Against P. aeruginosa PAM1001 in Presence of Efflux Pump Inhibitor (EPI), Minimum Inhibitory Concentration (Table 2, EPI Conc. […]): 4 µg/mL; Levofloxacin MIC Against P. aeruginosa PAM1001 in Presence of Efflux Pump Inhibitor (EPI), Minimum Inhibitory Concentration (Table 3, EPI Conc. […]): 4 µg/mL; Levofloxacin MIC Against P. aeruginosa PAM1001 in Presence of Efflux Pump Inhibitor (EPI), Minimum Inhibitory Concentration (Table 4, EPI Conc. 0.625 μg/ml): 4 µg/mL; Levofloxacin MIC Against P. aeruginosa PAM1001 in Presence of Efflux Pump Inhibitor (EPI), Minimum Inhibitory Concentration (Table 4, EPI Conc. 5 μg/ml): 2 µg/mL; Levofloxacin MIC Against P. aeruginosa PAM1001 in Presence of Efflux Pump Inhibitor (EPI), Minimum Inhibitory Concentration (Table 4, EPI Conc. 10 μg/ml): 2 µg/mL; Levofloxacin MIC Against P. aeruginosa PAM1001 in Presence of Efflux Pump Inhibitor (EPI), Minimum Inhibitory Concentration (Table 4, EPI Conc. 40 μg/ml): 1 µg/mL; Levofloxacin MIC Against P. aeruginosa PAM1001 in Presence of Efflux Pump Inhibitor (EPI), Minimum Inhibitory Concentration (Table 4, EPI Conc. […]): 4 µg/mL; Levofloxacin MIC Against P. aeruginosa PAM1001 in Presence of Efflux Pump Inhibitor (EPI), Minimum Inhibitory Concentration [4]: 2 µg/mL
D-Ornithyl-β-(N-phenylpropyl)alanine quinoline-3-amide [Compound 22 (Table 3)] | 4 µg/mL | 4 µg/mL | 2 µg/mL | 1 µg/mL | 0.06 µg/mL | 4 µg/mL | 0.50 µg/mL | 4 µg/mL | 4 µg/mL | 2 µg/mL | 1 µg/mL | 0.06 µg/mL | 0.125 µg/mL | 4 µg/mL | 4 µg/mL | 1 µg/mL | 0.50 µg/mL | 0.015 µg/mL | 0.25 µg/mL | 4 µg/mL | Levofloxacin MIC Against P. aeruginosa PAM1001 in Presence of Efflux Pump Inhibitor (EPI), Minimum Inhibitory Concentration (Table 2, EPI Conc. […]): 4 µg/mL; Levofloxacin MIC Against P. aeruginosa PAM1001 in Presence of Efflux Pump Inhibitor (EPI), Minimum Inhibitory Concentration (Table 4, EPI Conc. 0.625 μg/ml): 4 µg/mL; Levofloxacin MIC Against P. aeruginosa PAM1001 in Presence of Efflux Pump Inhibitor (EPI), Minimum Inhibitory Concentration (Table 4, EPI Conc. 5 μg/ml): 1 µg/mL; Levofloxacin MIC Against P. aeruginosa PAM1001 in Presence of Efflux Pump Inhibitor (EPI), Minimum Inhibitory Concentration (Table 4, EPI Conc. 10 μg/ml): 0.125 µg/mL; Levofloxacin MIC Against P. aeruginosa PAM1001 in Presence of Efflux Pump Inhibitor (EPI), Minimum Inhibitory Concentration (Table 4, EPI Conc. 40 μg/ml): 0.125 µg/mL; Levofloxacin MIC Against P. aeruginosa PAM1001 in Presence of Efflux Pump Inhibitor (EPI), Minimum Inhibitory Concentration [4]: 0.125 µg/mL
D-Ornithyl-β-N-(Cyclopropylmethyl)alanine Quinoline-2-amide Trifluoroacetate [Example 28] | 4 µg/mL | 4 µg/mL | 2 µg/mL | 1 µg/mL | 0.125 µg/mL | 4 µg/mL | 0.06 µg/mL | 4 µg/mL | 4 µg/mL | 1 µg/mL | 0.50 µg/mL | 0.125 µg/mL | 0.25 µg/mL | 4 µg/mL | 4 µg/mL | 0.015 µg/mL | 0.008 µg/mL | 0.015 µg/mL | 0.015 µg/mL | 4 µg/mL | Levofloxacin MIC Against P. aeruginosa PAM1001 in Presence of Efflux Pump Inhibitor (EPI), Minimum Inhibitory Concentration (Table 2, EPI Conc. […]): 4 µg/mL; Levofloxacin MIC Against P. aeruginosa PAM1001 in Presence of Efflux Pump Inhibitor (EPI), Minimum Inhibitory Concentration (Table 4, EPI Conc. 0.625 μg/ml): 4 µg/mL; Levofloxacin MIC Against P. aeruginosa PAM1001 in Presence of Efflux Pump Inhibitor (EPI), Minimum Inhibitory Concentration (Table 4, EPI Conc. 5 μg/ml): 2 µg/mL; Levofloxacin MIC Against P. aeruginosa PAM1001 in Presence of Efflux Pump Inhibitor (EPI), Minimum Inhibitory Concentration (Table 4, EPI Conc. 10 μg/ml): 0.25 µg/mL; Levofloxacin MIC Against P. aeruginosa PAM1001 in Presence of Efflux Pump Inhibitor (EPI), Minimum Inhibitory Concentration (Table 4, EPI Conc. 40 μg/ml): 0.125 µg/mL; Levofloxacin MIC Against P. aeruginosa PAM1001 in Presence of Efflux Pump Inhibitor (EPI), Minimum Inhibitory Concentration [4]: 0.125 µg/mL
D-Ornithyl-β-[N-(ethylthioethyl)]alanine 2-naphthylamide [Compound 42 (Table 3)] | 4 µg/mL | 4 µg/mL | 4 µg/mL | 1 µg/mL | 0.008 µg/mL | 4 µg/mL | 0.06 µg/mL | 4 µg/mL | 4 µg/mL | 0.25 µg/mL | 0.03 µg/mL | 0.06 µg/mL | 0.03 µg/mL | 4 µg/mL | 4 µg/mL | 2 µg/mL | 0.25 µg/mL | 0.125 µg/mL | 0.125 µg/mL | 4 µg/mL | Levofloxacin MIC Against P. aeruginosa PAM1001 in Presence of Efflux Pump Inhibitor (EPI), Minimum Inhibitory Concentration (Table 3, EPI Conc. […]): 4 µg/mL; Levofloxacin MIC Against P. aeruginosa PAM1001 in Presence of Efflux Pump Inhibitor (EPI), Minimum Inhibitory Concentration (Table 4, EPI Conc. 0.625 μg/ml): 4 µg/mL; Levofloxacin MIC Against P. aeruginosa PAM1001 in Presence of Efflux Pump Inhibitor (EPI), Minimum Inhibitory Concentration (Table 4, EPI Conc. 5 μg/ml): 2 µg/mL; Levofloxacin MIC Against P. aeruginosa PAM1001 in Presence of Efflux Pump Inhibitor (EPI), Minimum Inhibitory Concentration (Table 4, EPI Conc. 10 μg/ml): 1 µg/mL; Levofloxacin MIC Against P. aeruginosa PAM1001 in Presence of Efflux Pump Inhibitor (EPI), Minimum Inhibitory Concentration (Table 4, EPI Conc. 40 μg/ml): 0.03 µg/mL; Levofloxacin MIC Against P. aeruginosa PAM1001 in Presence of Efflux Pump Inhibitor (EPI), Minimum Inhibitory Concentration (Table 4, EPI Conc. […]): 4 µg/mL; Levofloxacin MIC Against P. aeruginosa PAM1001 in Presence of Efflux Pump Inhibitor (EPI), Minimum Inhibitory Concentration [4]: 0.125 µg/mL
